This is an account of results in US8748415B2 (priority 2011, dated 2014).

The test concerns recombinant NL4-3 virus (Renilla luciferase in nef, Gag P373S). As to the kind of experiment: HIV cell culture assay (luciferase activity in MT-2 cells infected with NLRluc recombinant virus). The test is classed as cell-based. Particulars: NL43, MT-2 cells infected 4-5 days with NLRluc recombinant virus, class symbol. In short, it runs like this: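 Activity was read as luciferase output (Dual Luciferase reagents premixed with lysis solution) after 4–5 days of infection in serially diluted inhibitor. Host cells were MT-2 in 10% FBS RPMI. The reporter virus came from transfected 293T cells and was titered on MT-2.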

Structures are written as SMILES. Where only a bound is given, the exact number is not on record here.

For `C=C(C)[C@@H]1CC[C@]2(CNCCC(=O)N3CCSCC3)CC[C@]3(C)[C@H](CC[C@@H]4[C@@]5(C)CC=C(c6ccc(C(=O)O)cc6)C(C)(C)[C@@H]5CC[C@]43C)[C@@H]12` [Example 122, 4-((1R,3aS,5aR,5bR,7aR,11aS,11bR,13aR,13bR)-5a,5b,8,8,11a-pentamethyl-3a-((3-oxo-3-thiomorpholinopropylamino)methyl)-1-(prop-1-en-2-yl)-2,3,3a,4,5,5a,5b,6,7,7a,8,11,11a,11b,12,13,13a,13b-octadecahydro-1H-cyclopenta[a]chrysen-9-yl)benzoic acid], the EC50 is less than 0.1 µM.
The result for `C=C(C)[C@@H]1CC[C@]2(CNC(=O)c3cccc(C(=O)O)c3)CC[C@]3(C)[C@H](CC[C@@H]4[C@@]5(C)CC=C(c6ccc(C(=O)O)cc6)C(C)(C)[C@@H]5CC[C@]43C)[C@@H]12` [Example 143, 3-(((1R,3aS,5aR,5bR,7aR,11aS,11bR,13aR,13bR)-9-(4-carboxyphenyl)-5a,5b,8,8,11a-pentamethyl-1-(prop-1-en-2-yl)-2,3,3a,4,5,5a,5b,6,7,7a,8,11,11a,11b,12,13,13a,13b-octadecahydro-1H-cyclopenta[a]chrysen-3a-yl)methylcarbamoyl)benzoic acid] reads less than 0.1 µM; that for `C=C(C)[C@@H]1CC[C@]2(CNC(=O)OCCN3CCNCC3)CC[C@]3(C)[C@H](CC[C@@H]4[C@@]5(C)CC=C(c6ccc(C(=O)O)cc6)C(C)(C)[C@@H]5CC[C@]43C)[C@@H]12` [Example 163, 4-((1R,3aS,5aR,5bR,7aR,11aS,11bR,13aR,13bR)-5a,5b,8,8,11a-pentamethyl-3a-(((2-(piperazin-1-yl)ethoxy)carbonylamino)methyl)-1-(prop-1-en-2-yl)-2,3,3a,4,5,5a,5b,6,7,7a,8,11,11a,11b,12,13,13a,13b-octadecahydro-1H-cyclopenta[a]chrysen-9-yl)benzoic acid], less than 0.1 µM.
The result for `C=C(C)[C@@H]1CC[C@]2(CNC(=O)[C@@H](N)Cc3c[nH]cn3)CC[C@]3(C)[C@H](CC[C@@H]4[C@@]5(C)CC=C(c6ccc(C(=O)O)cc6)C(C)(C)[C@@H]5CC[C@]43C)[C@@H]12` [Example 140, 4-((1R,3aS,5aR,5bR,7aR,11aS,11bR,13aR,13bR)-3a-(((S)-2-amino-3-(1H-imidazol-4-yl)propanamido)methyl)-5a,5b,8,8,11a-pentamethyl-1-(prop-1-en-2-yl)-2,3,3a,4,5,5a,5b,6,7,7a,8,11,11a,11b,12,13,13a,13b-octadecahydro-1H-cyclopenta[a]chrysen-9-yl)benzoic acid] reads less than 0.1 µM; that for `C=C(C)[C@@H]1CC[C@]2(CNCC(=O)O)CC[C@]3(C)[C@H](CC[C@@H]4[C@@]5(C)CC=C(c6ccc(C(=O)O)cc6)C(C)(C)[C@@H]5CC[C@]43C)[C@@H]12` [Example 31, 4-((1R,3aS,5aR,5bR,7aR,11aS,11bR,13aR,13bR)-3a-((carboxymethylamino)methyl)-5a,5b,8,8,11a-pentamethyl-1-(prop-1-en-2-yl)-2,3,3a,4,5,5a,5b,6,7,7a,8,11,11a,11b,12,13,13a,13b-octadecahydro-1H-cyclopenta[a]chrysen-9-yl)benzoic acid], less than 0.1 µM; that for `C=C(C)[C@@H]1CC[C@]2(CNCCCn3ccnc3C)CC[C@]3(C)[C@H](CC[C@@H]4[C@@]5(C)CC=C(c6ccc(C(=O)O)cc6)C(C)(C)[C@@H]5CC[C@]43C)[C@@H]12` [Example 22], less than 0.1 µM.
Next, `C=C(C)[C@@H]1CC[C@]2(CNCCCN(CCO)CCO)CC[C@]3(C)[C@H](CC[C@@H]4[C@@]5(C)CC=C(c6ccc(C(=O)O)cc6)C(C)(C)[C@@H]5CC[C@]43C)[C@@H]12` [Example 60, 4-((1R,3aS,5aR,5bR,7aR,11aS,11bR,13aR,13bR)-3a-((3-(bis(2-hydroxyethyl)amino)propylamino)methyl)-5a,5b,8,8,11a-pentamethyl-1-(prop-1-en-2-yl)-2,3,3a,4,5,5a,5b,6,7,7a,8,11,11a,11b,12,13,13a,13b-octadecahydro-1H-cyclopenta[a]chrysen-9-yl)benzoic acid]: less than 0.1 µM; `C=C(C)[C@@H]1CC[C@]2(CNCC(=O)N3CCC[C@@H]3C(=O)O)CC[C@]3(C)[C@H](CC[C@@H]4[C@@]5(C)CC=C(c6ccc(C(=O)O)cc6)C(C)(C)[C@@H]5CC[C@]43C)[C@@H]12` [Example 114, (R)-1-(2-(((1R,3aS,5aR,5bR,7aR,11aS,11bR,13aR,13bR)-9-(4-carboxyphenyl)-5a,5b,8,8,11a-pentamethyl-1-(prop-1-en-2-yl)-2,3,3a,4,5,5a,5b,6,7,7a,8,11,11a,11b,12,13,13a,13b-octadecahydro-1H-cyclopenta[a]chrysen-3a-yl)methylamino)acetyl)pyrrolidine-2-carboxylic acid]: less than 0.1 µM.
For `C=C(C)[C@@H]1CC[C@]2(CNC3(C(=O)O)CC3)CC[C@]3(C)[C@H](CC[C@@H]4[C@@]5(C)CC=C(c6ccc(C(=O)O)cc6)C(C)(C)[C@@H]5CC[C@]43C)[C@@H]12` [Example 50, 4-((1R,3aS,5aR,5bR,7aR,11aS,11bR,13aR,13bR)-3a-((1-carboxycyclopropylamino)methyl)-5a,5b,8,8,11a-pentamethyl-1-(prop-1-en-2-yl)-2,3,3a,4,5,5a,5b,6,7,7a,8,11,11a,11b,12,13,13a,13b-octadecahydro-1H-cyclopenta[a]chrysen-9-yl)benzoic acid], the concentration for a half-maximal effect (EC50) is less than 0.1 µM.
The result for `C=C(C)[C@@H]1CC[C@]2(CNCCC(=O)NC(C)(CO)CO)CC[C@]3(C)[C@H](CC[C@@H]4[C@@]5(C)CC=C(c6ccc(C(=O)O)cc6)C(C)(C)[C@@H]5CC[C@]43C)[C@@H]12` [Example 129, 4-((1R,3aS,5aR,5bR,7aR,11aS,11bR,13aR,13bR)-3a-((3-(1,3-dihydroxy-2-methylpropan-2-ylamino)-3-oxopropylamino)methyl)-5a,5b,8,8,11a-pentamethyl-1-(prop-1-en-2-yl)-2,3,3a,4,5,5a,5b,6,7,7a,8,11,11a,11b,12,13,13a,13b-octadecahydro-1H-cyclopenta[a]chrysen-9-yl)benzoic acid] reads less than 0.1 µM; that for `C=C(C)[C@@H]1CC[C@]2(CNCCCC(=O)N3CCS(=O)(=O)CC3)CC[C@]3(C)[C@H](CC[C@@H]4[C@@]5(C)CC=C(c6ccc(C(=O)O)cc6)C(C)(C)[C@@H]5CC[C@]43C)[C@@H]12` [Example 54, 4-((1R,3aS,5aR,5bR,7aR,11aS,11bR,13aR,13bR)-3a-(((4-(1,1-dioxido-4-thiomorpholinyl)-4-oxobutyl)amino)methyl)-1-isopropenyl-5a,5b,8,8,11a-pentamethyl-2,3,3a,4,5,5a,5b,6,7,7a,8,11,11a,11b,12,13,13a,13b-octadecahydro-1H-cyclopenta[a]chrysen-9-yl)benzoic acid], less than 0.1 µM; that for `C=C(C)[C@@H]1CC[C@]2(CNC(=O)CCC(=O)OC)CC[C@]3(C)[C@H](CC[C@@H]4[C@@]5(C)CC=C(c6ccc(C(=O)O)cc6)C(C)(C)[C@@H]5CC[C@]43C)[C@@H]12` [Example 170, 4-((1R,3aS,5aR,5bR,7aR,11aS,11bR,13aR,13bR)-3a-((4-methoxy-4-oxobutanamido)methyl)-5a,5b,8,8,11a-pentamethyl-1-(prop-1-en-2-yl)-2,3,3a,4,5,5a,5b,6,7,7a,8,11,11a,11b,12,13,13a,13b-octadecahydro-1H-cyclopenta[a]chrysen-9-yl)benzoic acid], less than 0.1 µM.
The result for `C=C(C)[C@@H]1CC[C@]2(CNCc3ccc(S(N)(=O)=O)cc3)CC[C@]3(C)[C@H](CC[C@@H]4[C@@]5(C)CC=C(c6ccc(C(=O)O)cc6)C(C)(C)[C@@H]5CC[C@]43C)[C@@H]12` [Example 35] reads less than 0.1 µM; that for `C=C(C)[C@@H]1CC[C@]2(CNCCCN3CCCC3=O)CC[C@]3(C)[C@H](CC[C@@H]4[C@@]5(C)CC=C(c6ccc(C(=O)O)cc6)C(C)(C)[C@@H]5CC[C@]43C)[C@@H]12` [Example 58, 4-((1R,3aS,5aR,5bR,7aR,11aS,11bR,13aR,13bR)-5a,5b,8,8,11a-pentamethyl-3a-((3-(2-oxopyrrolidin-1-yl)propylamino)methyl)-1-(prop-1-en-2-yl)-2,3,3a,4,5,5a,5b,6,7,7a,8,11,11a,11b,12,13,13a,13b-octadecahydro-1H-cyclopenta[a]chrysen-9-yl)benzoic acid], less than 0.1 µM.
The result for `C=C(C)[C@@H]1CC[C@]2(CNCCS(N)(=O)=O)CC[C@]3(C)[C@H](CC[C@@H]4[C@@]5(C)CC=C(c6ccc(C(=O)O)cc6)C(C)(C)[C@@H]5CC[C@]43C)[C@@H]12` [Example 45] reads less than 0.1 µM; that for `C=C(C)[C@@H]1CC[C@]2(CNC(=O)CCN3CCNCC3)CC[C@]3(C)[C@H](CC[C@@H]4[C@@]5(C)CC=C(c6ccc(C(=O)O)cc6)C(C)(C)[C@@H]5CC[C@]43C)[C@@H]12` [Example 141, 4-((1R,3aS,5aR,5bR,7aR,11aS,11bR,13aR,13bR)-5a,5b,8,8,11a-pentamethyl-3a-((3-(piperazin-1-yl)propanamido)methyl)-1-(prop-1-en-2-yl)-2,3,3a,4,5,5a,5b,6,7,7a,8,11,11a,11b,12,13,13a,13b-octadecahydro-1H-cyclopenta[a]chrysen-9-yl)benzoic acid], less than 0.1 µM.
For the molecule `C=C(C)[C@@H]1CC[C@]2(CNCC(C)CN3CCCC3=O)CC[C@]3(C)[C@H](CC[C@@H]4[C@@]5(C)CC=C(c6ccc(C(=O)O)cc6)C(C)(C)[C@@H]5CC[C@]43C)[C@@H]12` (stereo partly drawn) [Example 79, 4-((1R,3aS,5aR,5bR,7aR,11aS,11bR,13aR,13bR)-5a,5b,8,8,11a-pentamethyl-3a-((2-methyl-3-(2-oxopyrrolidin-1-yl)propylamino)methyl)-1-(prop-1-en-2-yl)-2,3,3a,4,5,5a,5b,6,7,7a,8,11,11a,11b,12,13,13a,13b-octadecahydro-1H-cyclopenta[a]chrysen-9-yl)benzoic acid], the EC50 is less than 0.1 µM.

Usually EC50 stands for the concentration at which the effect is half-maximal.
